Measured values published in patent US8129417B2, “Substituted octahydrocyclopenta[C]pyrrol-4-amines as calcium channel blockers” (Abbott Laboratories, priority 2008, dated 2012).

Molecular target: human Cav2.2 (Homo sapiens, UniProt Q00975)
Experiment: Assessment of calcium channel activity using FLIPR (Ca2+ influx in IMR32 cells)
Format: cell-based
Conditions: for IC50: 2 μM nifedipine, depolarized with 80 mM KCl; for inhibition at 10 µM: IMR-32, @ 10 μM, 3 minute pre-incubation (*), read-out: percent inhibition
Description: (i) In Vitro Methods—Assessment of Calcium Channel Activity Using FLIPR:
The IMR32 cells were maintained in MEM media containing 10% (v/v) FBS, 1% (v/v) antibiotic/antimitotic, 1% (v/v) sodium pyruvate and 1% (v/v) MEM NEAA. Following dissociation in 0.05% (v/v) trypsin/EDTA, cells were seeded into black 1×96-well plates (Corning Cellbind) at a density of 1-1.2×10^5 cells/well and incubated in the maintenance media above for 48 hours at 37° C. […] To determine the IC50 values, the percent inhibition of the compound at each concentration was determined relative to the activity in the absence of inhibitor, and data was fitted using non-linear regression sigmoidal dose response curve analysis with GraphPad Prism®.

[1] = 3 minute pre-incubation with compound (*)
[2] = 60 minute pre-incubation with compound

human Cav2.2, sequence (Q00975 whole entry): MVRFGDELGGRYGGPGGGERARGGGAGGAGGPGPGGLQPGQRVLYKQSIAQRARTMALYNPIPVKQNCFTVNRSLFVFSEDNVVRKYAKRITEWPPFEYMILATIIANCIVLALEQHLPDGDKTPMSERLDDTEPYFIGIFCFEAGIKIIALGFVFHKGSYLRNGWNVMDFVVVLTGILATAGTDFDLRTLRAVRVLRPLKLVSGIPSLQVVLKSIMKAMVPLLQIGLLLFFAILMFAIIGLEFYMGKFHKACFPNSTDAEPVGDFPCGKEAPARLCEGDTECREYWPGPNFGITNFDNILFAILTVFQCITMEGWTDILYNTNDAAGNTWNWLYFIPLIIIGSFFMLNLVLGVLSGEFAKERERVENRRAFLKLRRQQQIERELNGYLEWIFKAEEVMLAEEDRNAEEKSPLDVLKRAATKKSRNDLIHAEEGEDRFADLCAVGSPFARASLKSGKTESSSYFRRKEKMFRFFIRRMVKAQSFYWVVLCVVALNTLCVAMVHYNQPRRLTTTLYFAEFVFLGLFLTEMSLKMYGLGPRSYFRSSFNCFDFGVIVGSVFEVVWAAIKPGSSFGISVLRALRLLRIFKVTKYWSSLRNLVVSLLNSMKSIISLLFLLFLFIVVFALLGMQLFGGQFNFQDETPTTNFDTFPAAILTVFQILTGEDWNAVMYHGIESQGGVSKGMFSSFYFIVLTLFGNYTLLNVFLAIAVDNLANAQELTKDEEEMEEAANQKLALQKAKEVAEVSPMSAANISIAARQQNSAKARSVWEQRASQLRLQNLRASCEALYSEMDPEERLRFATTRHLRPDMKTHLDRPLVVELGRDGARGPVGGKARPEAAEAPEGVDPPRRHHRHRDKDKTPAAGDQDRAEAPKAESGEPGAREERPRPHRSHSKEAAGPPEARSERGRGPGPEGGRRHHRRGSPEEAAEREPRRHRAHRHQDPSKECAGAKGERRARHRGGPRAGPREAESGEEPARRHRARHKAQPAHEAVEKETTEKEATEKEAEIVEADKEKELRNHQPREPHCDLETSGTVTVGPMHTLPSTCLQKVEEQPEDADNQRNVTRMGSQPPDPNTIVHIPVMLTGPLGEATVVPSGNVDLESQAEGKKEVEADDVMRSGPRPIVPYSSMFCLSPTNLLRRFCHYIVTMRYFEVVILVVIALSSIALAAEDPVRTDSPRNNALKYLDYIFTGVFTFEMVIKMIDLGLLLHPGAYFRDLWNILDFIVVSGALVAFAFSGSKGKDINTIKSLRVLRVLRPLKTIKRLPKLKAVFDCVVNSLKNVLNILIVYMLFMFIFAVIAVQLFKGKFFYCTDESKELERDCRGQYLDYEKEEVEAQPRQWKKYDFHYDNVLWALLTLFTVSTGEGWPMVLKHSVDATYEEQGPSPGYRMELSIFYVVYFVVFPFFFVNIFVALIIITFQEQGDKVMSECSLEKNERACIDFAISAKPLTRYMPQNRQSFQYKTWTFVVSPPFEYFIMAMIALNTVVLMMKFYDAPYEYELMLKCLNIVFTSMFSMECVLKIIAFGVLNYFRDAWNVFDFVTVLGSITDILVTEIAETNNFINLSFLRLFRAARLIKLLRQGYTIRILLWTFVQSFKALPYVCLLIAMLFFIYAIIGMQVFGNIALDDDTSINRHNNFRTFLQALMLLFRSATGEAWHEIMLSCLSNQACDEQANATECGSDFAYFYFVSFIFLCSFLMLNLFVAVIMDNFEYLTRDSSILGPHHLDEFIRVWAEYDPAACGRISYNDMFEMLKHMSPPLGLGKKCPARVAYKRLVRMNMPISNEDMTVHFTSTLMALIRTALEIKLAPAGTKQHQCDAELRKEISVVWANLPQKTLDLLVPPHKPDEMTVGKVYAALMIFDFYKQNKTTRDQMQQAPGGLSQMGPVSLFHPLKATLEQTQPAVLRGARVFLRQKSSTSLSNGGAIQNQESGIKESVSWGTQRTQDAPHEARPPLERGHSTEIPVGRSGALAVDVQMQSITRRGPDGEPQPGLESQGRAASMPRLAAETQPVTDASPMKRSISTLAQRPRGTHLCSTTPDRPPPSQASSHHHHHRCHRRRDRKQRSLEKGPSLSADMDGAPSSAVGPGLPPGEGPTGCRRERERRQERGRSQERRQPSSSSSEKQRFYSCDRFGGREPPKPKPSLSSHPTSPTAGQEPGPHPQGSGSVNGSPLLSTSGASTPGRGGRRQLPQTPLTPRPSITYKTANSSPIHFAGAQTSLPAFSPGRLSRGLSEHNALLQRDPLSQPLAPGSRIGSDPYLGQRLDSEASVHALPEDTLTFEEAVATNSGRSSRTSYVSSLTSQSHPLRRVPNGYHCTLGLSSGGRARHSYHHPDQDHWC
human Cav2.2, sequence (P54289 25-946 partner limits assumed): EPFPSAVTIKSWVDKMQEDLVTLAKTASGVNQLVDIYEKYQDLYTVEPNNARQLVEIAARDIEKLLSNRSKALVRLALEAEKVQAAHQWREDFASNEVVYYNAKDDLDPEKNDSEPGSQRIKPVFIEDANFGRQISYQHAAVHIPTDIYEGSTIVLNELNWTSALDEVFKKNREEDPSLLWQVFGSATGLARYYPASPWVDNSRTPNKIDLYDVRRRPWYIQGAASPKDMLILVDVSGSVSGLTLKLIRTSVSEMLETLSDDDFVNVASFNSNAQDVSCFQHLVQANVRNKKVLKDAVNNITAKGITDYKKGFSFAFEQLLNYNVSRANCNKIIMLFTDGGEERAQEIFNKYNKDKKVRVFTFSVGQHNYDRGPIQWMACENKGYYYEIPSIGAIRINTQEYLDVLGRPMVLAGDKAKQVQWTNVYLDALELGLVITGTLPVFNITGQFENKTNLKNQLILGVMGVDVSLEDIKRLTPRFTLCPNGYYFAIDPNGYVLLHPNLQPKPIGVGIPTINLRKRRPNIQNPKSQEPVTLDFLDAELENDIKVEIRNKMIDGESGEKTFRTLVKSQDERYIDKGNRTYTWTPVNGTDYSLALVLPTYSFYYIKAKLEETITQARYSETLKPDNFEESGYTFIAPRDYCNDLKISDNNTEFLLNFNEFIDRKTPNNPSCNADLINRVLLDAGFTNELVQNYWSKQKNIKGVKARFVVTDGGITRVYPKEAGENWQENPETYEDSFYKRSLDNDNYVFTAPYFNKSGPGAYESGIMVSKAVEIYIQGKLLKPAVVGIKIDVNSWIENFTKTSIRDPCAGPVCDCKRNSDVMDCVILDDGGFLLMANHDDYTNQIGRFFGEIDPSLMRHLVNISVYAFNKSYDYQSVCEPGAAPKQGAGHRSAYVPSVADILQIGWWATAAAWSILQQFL
human Cav2.2, sequence (P54289 947-1103 partner limits assumed): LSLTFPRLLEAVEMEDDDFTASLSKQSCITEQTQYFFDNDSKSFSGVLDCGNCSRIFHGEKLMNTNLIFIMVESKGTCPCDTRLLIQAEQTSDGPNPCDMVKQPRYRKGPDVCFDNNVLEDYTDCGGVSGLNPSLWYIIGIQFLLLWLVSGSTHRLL
human Cav2.2, sequence (P54284 whole entry partner): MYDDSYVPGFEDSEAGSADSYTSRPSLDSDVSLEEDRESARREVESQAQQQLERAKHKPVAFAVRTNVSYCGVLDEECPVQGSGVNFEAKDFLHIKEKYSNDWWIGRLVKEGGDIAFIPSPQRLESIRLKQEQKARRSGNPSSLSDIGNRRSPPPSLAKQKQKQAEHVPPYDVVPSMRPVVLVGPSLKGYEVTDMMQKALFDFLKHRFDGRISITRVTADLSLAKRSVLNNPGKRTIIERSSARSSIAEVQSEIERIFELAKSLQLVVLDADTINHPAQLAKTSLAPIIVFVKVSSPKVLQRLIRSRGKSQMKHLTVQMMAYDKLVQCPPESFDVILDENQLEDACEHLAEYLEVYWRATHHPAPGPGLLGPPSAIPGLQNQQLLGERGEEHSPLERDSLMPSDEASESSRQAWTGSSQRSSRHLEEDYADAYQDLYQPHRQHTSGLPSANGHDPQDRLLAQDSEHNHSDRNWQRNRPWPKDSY

IC50 [1] [µM] | IC50 [2] [µM] | SMILES | also measured
14.7 |  | O=C(N[C@@H]1CC[C@H]2CN(Cc3ccccc3)C[C@H]21)C1CCCCCC1 [Example 22, N-[(3aS,4R,6aR)-2-benzyloctahydrocyclopenta[c]pyrrol-4-yl]cycloheptanecarboxamide] | 
 | 2.5 | CC(C)Cc1ccc([C@H](C)C(=O)N[C@@H]2CC[C@H]3CN(Cc4ccccc4)C[C@H]32)cc1 [Example 23, (2S)—N-[(3aS,4R,6aR)-2-benzyloctahydrocyclopenta[c]pyrrol-4-yl]-2-(4-isobutylphenyl)propanamide] | 
2.9 |  | O=C(N[C@@H]1CC[C@H]2CN(Cc3ccccc3)C[C@H]21)C1(c2ccccc2)CCCCC1 [Example 24, N-[(3aS,4R,6aR)-2-benzyloctahydrocyclopenta[c]pyrrol-4-yl]-1-phenylcyclohexanecarboxamide] | 
3.7 |  | O=C(N[C@@H]1CC[C@H]2CN(Cc3ccccc3)C[C@H]21)C(Cc1ccccc1)c1ccccc1 (stereo partly drawn) [Example 25, N-[(3aS,4R,6aR)-2-benzyloctahydrocyclopenta[c]pyrrol-4-yl]-2,3-diphenylpropanamide] | 
17.3 |  | CC(Cc1ccccc1)C(=O)N[C@@H]1CC[C@H]2CN(Cc3ccccc3)C[C@H]21 (stereo partly drawn) [Example 26, N-[(3aS,4R,6aR)-2-benzyloctahydrocyclopenta[c]pyrrol-4-yl]-2-methyl-3-phenylpropanamide] | 
9.7 |  | CC(C)(C(=O)N[C@@H]1CC[C@H]2CN(Cc3ccccc3)C[C@H]21)c1ccccc1 [Example 27, N-[(3aS,4R,6aR)-2-benzyloctahydrocyclopenta[c]pyrrol-4-yl]-2-methyl-2-phenylpropanamide] | 
13.9 |  | O=C(N[C@@H]1CC[C@H]2CN(Cc3ccccc3)C[C@H]21)C1(c2ccccc2)CC1 [Example 28, N-[(3aS,4R,6aR)-2-benzyloctahydrocyclopenta[c]pyrrol-4-yl]-1-phenylcyclopropanecarboxamide] | 
5.6 |  | CC(C)(C)C(Cc1ccccc1)C(=O)N[C@@H]1CC[C@H]2CN(Cc3ccccc3)C[C@H]21 (stereo partly drawn) [Example 29, 2-benzyl-N-[(3aS,4R,6aR)-2-benzyloctahydrocyclopenta[c]pyrrol-4-yl]-3,3-dimethylbutanamide] | 
 |  | CC[C@@H](C(=O)N[C@H]1CC[C@@H]2CN(Cc3ccccc3)C[C@@H]21)c1ccccc1 [Example 36, (2R)—N-[(3aR,4S,6aS)-2-benzyloctahydrocyclopenta[c]pyrrol-4-yl]-2-phenylbutanamide] | inhibition at 10 µM: 44%
 |  | C[C@@H](C(=O)N[C@H]1CC[C@@H]2CN(Cc3ccccc3)C[C@@H]21)c1ccccc1 [Example 37, (2R)—N-[(3aR,4S,6aS)-2-benzyloctahydrocyclopenta[c]pyrrol-4-yl]-2-phenylpropanamide] | inhibition at 10 µM: 15%
 |  | C[C@H](C(=O)N[C@H]1CC[C@@H]2CN(Cc3ccccc3)C[C@@H]21)c1ccccc1 [Example 38, (2S)—N-[(3aR,4S,6aS)-2-benzyloctahydrocyclopenta[c]pyrrol-4-yl]-2-phenylpropanamide] | inhibition at 10 µM: 27%
 |  | CC(C)Cc1ccc([C@H](C)C(=O)N[C@H]2CC[C@@H]3CN(Cc4ccccc4)C[C@@H]32)cc1 [Example 39, (2S)—N-[(3aR,4S,6aS)-2-benzyloctahydrocyclopenta[c]pyrrol-4-yl]-2-(4-isobutylphenyl)propanamide] | inhibition at 10 µM: 92%
3.6 |  | O=C(N[C@H]1CC[C@@H]2CN(Cc3ccccc3)C[C@@H]21)C(C1CCCCC1)C1CCCCC1 [Example 40, N-[(3aR,4S,6aS)-2-benzyloctahydrocyclopenta[c]pyrrol-4-yl]-2,2-dicyclohexylacetamide] | 
 |  | O=C(N[C@H]1CC[C@@H]2CN(Cc3ccccc3)C[C@@H]21)C(c1ccccc1)C1CC1 (stereo partly drawn) [Example 41, N-[(3aR,4S,6aS)-2-benzyloctahydrocyclopenta[c]pyrrol-4-yl]-2-cyclopropyl-2-phenylacetamide] | inhibition at 10 µM: 56%
1.7 |  | CCC(CC)C(C(=O)N[C@H]1CC[C@@H]2CN(Cc3ccccc3)C[C@@H]21)c1ccccc1 (stereo partly drawn) [Example 44, N-[(3aR,4S,6aS)-2-benzyloctahydrocyclopenta[c]pyrrol-4-yl]-3-ethyl-2-phenylpentanamide] | 
3.1 |  | O=C(N[C@H]1CC[C@@H]2CN(Cc3ccccc3)C[C@@H]21)C1(c2ccccc2)CCCCC1 [Example 46, N-[(3aR,4S,6aS)-2-benzyloctahydrocyclopenta[c]pyrrol-4-yl]-1-phenylcyclohexanecarboxamide] | 
15.6 |  | CC(C)(C(=O)N[C@H]1CC[C@@H]2CN(Cc3ccccc3)C[C@@H]21)c1ccccc1 [Example 47, N-[(3aR,4S,6aS)-2-benzyloctahydrocyclopenta[c]pyrrol-4-yl]-2-methyl-2-phenylpropanamide] | 

IC50 [1] [µM] | IC50 [2] [µM] | SMILES | also measured
10.5 |  | O=C(N[C@H]1CC[C@@H]2CN(Cc3ccccc3)C[C@@H]21)C1(c2ccccc2)CC1 [Example 48, N-[(3aR,4S,6aS)-2-benzyloctahydrocyclopenta[c]pyrrol-4-yl]-1-phenylcyclopropanecarboxamide] | 
4.6 |  | CC(C)(C)C(Cc1ccccc1)C(=O)N[C@H]1CC[C@@H]2CN(Cc3ccccc3)C[C@@H]21 (stereo partly drawn) [Example 49, 2-benzyl-N-[(3aR,4S,6aS)-2-benzyloctahydrocyclopenta[c]pyrrol-4-yl]-3,3-dimethylbutanamide] | 
5 |  | O=C(N[C@H]1CC[C@@H]2CN(Cc3ccccc3)C[C@@H]21)C(Cc1ccccc1)c1ccccc1 (stereo partly drawn) [Example 50, N-[(3aR,4S,6aS)-2-benzyloctahydrocyclopenta[c]pyrrol-4-yl]-2,3-diphenylpropanamide] | 
15.2 |  | CC(Cc1ccccc1)C(=O)N[C@H]1CC[C@@H]2CN(Cc3ccccc3)C[C@@H]21 (stereo partly drawn) [Example 51, N-[(3aR,4S,6aS)-2-benzyloctahydrocyclopenta[c]pyrrol-4-yl]-2-methyl-3-phenylpropanamide] | 
 | 0.8 | O=C(N[C@H]1CC[C@H]2CN(Cc3ccccc3F)C[C@H]21)C(C1CCCCC1)C1CCCCC1 [Example 55, 2,2-dicyclohexyl-N-[(3aS,4S,6aR)-2-(2-fluorobenzyl)octahydrocyclopenta[c]pyrrol-4-yl]acetamide] | 
 | 1 | O=C(N[C@H]1CC[C@H]2CN(Cc3ccc(F)cc3)C[C@H]21)C(C1CCCCC1)C1CCCCC1 [Example 56, 2,2-dicyclohexyl-N-[(3aS,4S,6aR)-2-(4-fluorobenzyl)octahydrocyclopenta[c]pyrrol-4-yl]acetamide] | 
 | 1.5 | O=C(N[C@H]1CC[C@H]2CN(Cc3ccccc3C(F)(F)F)C[C@H]21)C(C1CCCCC1)C1CCCCC1 [Example 60, 2,2-dicyclohexyl-N-{(3aS,4S,6aR)-2-[2-(trifluoromethyl)benzyl]octahydrocyclopenta[c]pyrrol-4-yl}acetamide] | 
 | 1.5 | Cc1cccc(CN2C[C@@H]3CC[C@H](NC(=O)C(C4CCCCC4)C4CCCCC4)[C@@H]3C2)c1 [Example 61, 2,2-dicyclohexyl-N-[(3aS,4S,6aR)-2-(3-methylbenzyl)octahydrocyclopenta[c]pyrrol-4-yl]acetamide] | 
 | 0.6 | O=C(N[C@H]1CC[C@H]2CN(Cc3cccc(OC(F)(F)F)c3)C[C@H]21)C(C1CCCCC1)C1CCCCC1 [Example 63, 2,2-dicyclohexyl-N-{(3aS,4S,6aR)-2-[3-(trifluoromethoxy)benzyl]octahydrocyclopenta[c]pyrrol-4-yl}acetamide] | 
 | 1.3 | O=C(N[C@H]1CC[C@H]2CN(Cc3cccc(F)c3)C[C@H]21)C(C1CCCCC1)C1CCCCC1 [Example 64, 2,2-dicyclohexyl-N-[(3aS,4S,6aR)-2-(3-fluorobenzyl)octahydrocyclopenta[c]pyrrol-4-yl]acetamide] | 
 | 4.5 | O=C(N[C@H]1CC[C@H]2CN(CCC(c3ccc(F)cc3)c3ccc(F)cc3)C[C@H]21)C(C1CCCCC1)C1CCCCC1 [Example 65, N-{(3aS,4S,6aR)-2-[3,3-bis(4-fluorophenyl)propyl]octahydrocyclopenta[c]pyrrol-4-yl}-2,2-dicyclohexylacetamide] | 
 | 0.9 | O=C(N[C@H]1CC[C@H]2CN(CCCCCC(c3ccc(F)cc3)c3ccc(F)cc3)C[C@H]21)C(C1CCCCC1)C1CCCCC1 [Example 66, N-{(3aS,4S,6aR)-2-[6,6-bis(4-fluorophenyl)hexyl]octahydrocyclopenta[c]pyrrol-4-yl}-2,2-dicyclohexylacetamide] | 
 | 1.7 | O=C(N[C@H]1CC[C@H]2CN(CCCc3cccc(F)c3)C[C@H]21)C(C1CCCCC1)C1CCCCC1 [Example 68, 2,2-dicyclohexyl-N-{(3aS,4S,6aR)-2-[3-(3-fluorophenyl)propyl]octahydrocyclopenta[c]pyrrol-4-yl}acetamide] | 
 | 1.2 | O=C(N[C@H]1CC[C@H]2CN(CCCc3ccc(F)cc3)C[C@H]21)C(C1CCCCC1)C1CCCCC1 [Example 71, 2,2-dicyclohexyl-N-{(3aS,4S,6aR)-2-[3-(4-fluorophenyl)propyl]octahydrocyclopenta[c]pyrrol-4-yl}acetamide] | 
11.2 |  | O=C(N[C@@H]1CC[C@H]2CNC[C@H]21)C(C1CCCCC1)C1CCCCC1 [Example 74, 2,2-dicyclohexyl-N-[(3aS,4R,6aR)-octahydrocyclopenta[c]pyrrol-4-yl]acetamide] | 
 | 0.4 | O=C(N[C@@H]1CC[C@H]2CN(CCCCCC(c3ccc(F)cc3)c3ccc(F)cc3)C[C@H]21)C(C1CCCCC1)C1CCCCC1 [Example 78, N-{(3aS,4R,6aR)-2-[6,6-bis(4-fluorophenyl)hexyl]octahydrocyclopenta[c]pyrrol-4-yl}-2,2-dicyclohexylacetamide] | 
 |  | CC(C)C(C(=O)N[C@H]1CC[C@@H]2CN(C)C[C@@H]21)c1ccccc1 (stereo partly drawn) [Example 84, 3-methyl-N-[(3aR,4S,6aS)-2-methyloctahydrocyclopenta[c]pyrrol-4-yl]-2-phenylbutanamide] | inhibition at 10 µM: 5.8%
